We go through 13 molecules from patent US8324264B1, “Inhibitors of bacterial biofilms and related methods” (Sequoia Sciences, Inc., priority 2011, dated 2012).

In brackets after ≈: the same amount, converted by molar mass.

One assay deals with P. aeruginosa biofilms. The assay can be described thus: Biofilm growth assay (spreading biofilm on semi-solid agar), P. aeruginosa. In kind it is cell-based. The following applies: biofilm growth assay, overnight 37° C., vs negative controls, Tables 1-5; for IC85: Pseudomonas aeruginosa, read-out: P. aeruginosa: concentration that reduces the area of the spreading biofilm by greater than or equal to 85%. The essentials: (§1)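 Values are compound concentrations (μg/ml) that cut the spreading-biofilm zone area by ≥85% relative to negative controls after overnight 37 °C growth from 5 μL central inoculum. E. coli plates: LB, 0.6% agar, 0.5% glucose; P. aeruginosa plates: M8 agar plus 0.2% glucose, 100 μM CaCl2, 1 mM MgSO4, 0.5% Casamino acids.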

The next assay deals with E. coli biofilms. The assay can be described thus: Biofilm growth assay (spreading biofilm on semi-solid agar), E. coli. The following applies: biofilm growth assay, overnight 37° C., vs negative controls, Tables 1-5; for IC85: Escherichia coli, read-out: E. coli: concentration that reduces the area of the spreading biofilm by greater than or equal to 85%. Format: cell-based. The essentials:
as §1

Turning to `CC1(C)CC[C@]2(C(=O)O)CC[C@]3(C)C(=C(c4ccoc4CN4CCNCC4)CC4[C@@]5(C)Cc6c(n[nH]c6N)C(C)(C)[C@@H]5CC[C@]43C)[C@@H]2C1` (stereo partly drawn) [Example 35, (4aS,6aS,6bR,8aR,13aR,15bS)-12-Amino-2,2,6a,6b,9,9,13a-heptamethyl-15-(2-(piperazin-1-ylmethyl)furan-3-yl)-2,3,4,4a,5,6,6a,6b,7,8,8a,9,11,13,13a,13b,14,15b-octadecahydro-1H-chryseno[1,2-f]indazole-4-a-carboxylic acid], the “P. aeruginosa: concentration that reduces the area of the spreading biofilm by greater than or equal to 85%” value with P. aeruginosa biofilms is above 1 µg/mL. For the same molecule, in the assay with E. coli biofilms, the “E. coli: concentration that reduces the area of the spreading biofilm by greater than or equal to 85%” value came out at 1 µg/mL.

`CC1(C)CC[C@]2(C(=O)O)CC[C@]3(C)C(=C(c4ccoc4)CC4[C@@]5(C)Cc6c(n[nH]c6N)C(C)(C)[C@@H]5CC[C@]43C)[C@@H]2C1` (stereo partly drawn) [Example 26, (4aS,6aS,6bR,8aR,13aR,15bS)-12-Amino-15-(furan-3-yl)-2,2,6a,6b,9,9,13a-heptamethyl-2,3,4,4a,5,6,6a,6b,7,8,8a,9,11,13,13a,13b,14,15b-octadecahydro-1H-chryseno[1,2-f]indazole-4-a-carboxylic acid]: the “P. aeruginosa: concentration that reduces the area of the spreading biofilm by greater than or equal to 85%” value in the assay with P. aeruginosa biofilms stood at 0.25 µg/mL. For the same molecule, in the assay with E. coli biofilms, the “E. coli: concentration that reduces the area of the spreading biofilm by greater than or equal to 85%” value is 1 µg/mL.

For the molecule `CC1(C)CC[C@]2(C(=O)O)CC[C@]3(C)C(=C(c4ccc(CN5CCOCC5)cc4)CC4[C@@]5(C)Cc6c(n[nH]c6N)C(C)(C)C5CC[C@]43C)C2C1` (stereo partly drawn) [Example 52, (4aS,6aS,6bR,13aR)-12-Amino-2,2,6a,6b,9,9,13a-heptamethyl-15-(4-(morpholinomethyl)phenyl)-2,3,4,4a,5,6,6a,6b,7,8,8a,9,11,13,13a,13b,14,15b-octadecahydro-1H-chryseno[1,2-f]indazole-4-a-carboxylic acid], in the assay on P. aeruginosa biofilms, the “P. aeruginosa: concentration that reduces the area of the spreading biofilm by greater than or equal to 85%” value came to 1 µg/mL. In addition, in the assay with E. coli biofilms, the “E. coli: concentration that reduces the area of the spreading biofilm by greater than or equal to 85%” value stood at 2 µg/mL.

As to `Cn1cc2c(n1)C(C)(C)C1CC[C@]3(C)C(CC=C4C5CC(C)(C)CC[C@]5(C(=O)O)CC[C@]43C)[C@@]1(C)C2` (some centres unmarked) [E], the IC85 in the assay with P. aeruginosa biofilms is 2 µg/mL (≈ 4.06 µM); in the assay on E. coli biofilms it was above 16 µg/mL.

In the case of `CC1(C)CC[C@]2(C(=O)O)CC[C@]3(C)C(=C(c4cccc(N)c4)CC4[C@@]5(C)Cc6c(n[nH]c6N)C(C)(C)[C@@H]5CC[C@]43C)[C@@H]2C1` (stereo partly drawn) [Example 15, (4aS,6aS,6bR,8aR,13aR,15bS)-12-Amino-15-(3-aminophenyl)-2,2,6a,6b,9,9,13a-heptamethyl-2,3,4,4a,5,6,6a,6b,7,8,8a,9,11,13,13a,13b,14,15b-octadecahydro-1H-chryseno[1,2-f]indazole-4-a-carboxylic acid], the “P. aeruginosa: concentration that reduces the area of the spreading biofilm by greater than or equal to 85%” value in the assay with P. aeruginosa biofilms was found to be 0.25 µg/mL. Also, in the assay on E. coli biofilms, the “E. coli: concentration that reduces the area of the spreading biofilm by greater than or equal to 85%” value was determined as 1 µg/mL.

As to `CC1(C)CC[C@]2(C(=O)O)CC[C@]3(C)C(=C(c4ccc5c(c4)CCN5)CC4[C@@]5(C)Cc6c(n[nH]c6N)C(C)(C)[C@@H]5CC[C@]43C)[C@@H]2C1` (stereo partly drawn) [Example 11, (4aS,6aS,6bR,13aR)-12-Amino-15-(indolin-5-yl)-2,2,6a,6b,9,9,13a-heptamethyl-2,3,4,4a,5,6,6a,6b,7,8,8a,9,11,13,13a,13b,14,15b-octadecahydro-1H-chryseno[1,2-f]indazole-4-a-carboxylic acid], the IC85 in the assay on P. aeruginosa biofilms and in the assay with E. coli biofilms was 0.5 µg/mL (≈ 0.818 µM) throughout.

`CC1(C)CC[C@]2(C(=O)O)CC[C@]3(C)C(=CC[C@@H]4[C@@]5(C)Cc6c(noc6N)C(C)(C)[C@@H]5CC[C@]43C)[C@@H]2C1` [K]: the IC85 with P. aeruginosa biofilms and in the assay on E. coli biofilms was above 8 µg/mL in each case.

`CC1(C)CC[C@]2(C(=O)O)CC[C@]3(C)C(=C(CO)CC4[C@@]5(C)Cc6c(n[nH]c6N)C(C)(C)[C@@H]5CC[C@]43C)[C@@H]2C1` (some centres unmarked) [N]: the IC85 with P. aeruginosa biofilms and with E. coli biofilms was 8 µg/mL (≈ 15.3 µM) throughout.

Take `CC1(C)CC[C@]2(C(=O)O)CC[C@]3(C)C(=C(c4ccccc4CN4CCOCC4)CC4[C@@]5(C)Cc6c(n[nH]c6N)C(C)(C)[C@@H]5CC[C@]43C)[C@@H]2C1` (stereo partly drawn) [Example 59, (4aS,6aS,6bR,8aR,13aR,15bS)-12-Amino-2,2,6a,6b,9,9,13a-heptamethyl-15-(2-(morpholinomethyl)phenyl)-2,3,4,4a,5,6,6a,6b,7,8,8a,9,11,13,13a,13b,14,15b-octadecahydro-1H-chryseno[1,2-f]indazole-4-a-carboxylic acid]: the “P. aeruginosa: concentration that reduces the area of the spreading biofilm by greater than or equal to 85%” value in the assay with P. aeruginosa biofilms amounted to 0.5 µg/mL. Also, the “E. coli: concentration that reduces the area of the spreading biofilm by greater than or equal to 85%” value with E. coli biofilms was above 1 µg/mL.

On to `CC1(C)CC[C@]2(C(=O)O)CC[C@]3(C)C(=C(c4coc(CN5CCCC5)c4)CC4[C@@]5(C)Cc6c(n[nH]c6N)C(C)(C)C5CC[C@]43C)C2C1` (stereo partly drawn) [Example 38, (4aS,6aS,6bR,13aR)-12-Amino-2,2,6a,6b,9,9,13a-heptamethyl-15-(5-(pyrrolidin-1-ylmethyl)furan-3-yl)-2,3,4,4a,5,6,6a,6b,7,8,8a,9,11,13,13a,13b,14,15b-octadecahydro-1H-chryseno[1,2-f]indazole-4-a-carboxylic acid], for which the “P. aeruginosa: concentration that reduces the area of the spreading biofilm by greater than or equal to 85%” value with P. aeruginosa biofilms is 1 µg/mL. Also, the “E. coli: concentration that reduces the area of the spreading biofilm by greater than or equal to 85%” value in the assay with E. coli biofilms was found to be 2 µg/mL.

For the molecule `CC1(C)CC[C@]2(C(=O)O)CC[C@]3(C)C(=C(c4ccc(N5CCC(N)CC5)nc4)CC4[C@@]5(C)Cc6c(n[nH]c6N)C(C)(C)C5CC[C@]43C)C2C1` (stereo partly drawn) [Example 57, (4aS,6aS,6bR,13aR)-12-Amino-15-(6-(4-aminopiperidin-1-yl)pyridin-3-yl)-2,2,6a,6b,9,9,13a-heptamethyl-2,3,4,4a,5,6,6a,6b,7,8,8a,9,11,13,13a,13b,14,15b-octadecahydro-1H-chryseno[1,2-f]indazole-4-a-carboxylic acid], the “P. aeruginosa: concentration that reduces the area of the spreading biofilm by greater than or equal to 85%” value in the assay with P. aeruginosa biofilms was above 2 µg/mL. Also, the “E. coli: concentration that reduces the area of the spreading biofilm by greater than or equal to 85%” value with E. coli biofilms stood at 1 µg/mL.

Take `C[C@@H]1c2n[nH]c(N)c2C[C@]2(C)C3CC=C4[C@@H]5CC(C)(C)CC[C@]5(C(=O)O)CC[C@@]4(C)[C@]3(C)CC[C@@H]12` (stereo partly drawn) [Example 3, (4aS,6aS,6bR,8aS,9S,13aS,15bS)-12-Amino-2,2,6a,6b,9,13a-hexamethyl-2,3,4,4a,5,6,6a,6b,7,8,8a,9,11,13,13a,13b,14,15b-octadecahydro-1H-chryseno[1,2-f]indazole-4-a-carboxylic acid]: the values for the IC85 in the assay with P. aeruginosa biofilms and with E. coli biofilms were 0.5 µg/mL (≈ 1.04 µM) and 1 µg/mL (≈ 2.08 µM), respectively.

In the case of `CC1(C)CC[C@]2(C(=O)O)CC[C@]3(C)C(=C(c4coc(CN5CCNCC5)c4)CC4[C@@]5(C)Cc6c(n[nH]c6N)C(C)(C)C5CC[C@]43C)C2C1` (stereo partly drawn) [Example 39, (4aS,6aS,6bR,13aR)-12-Amino-2,2,6a,6b,9,9,13a-heptamethyl-15-(5-(piperazin-1-ylmethyl)furan-3-yl)-2,3,4,4a,5,6,6a,6b,7,8,8a,9,11,13,13a,13b,14,15b-octadecahydro-1H-chryseno[1,2-f]indazole-4-a-carboxylic acid], in the assay on P. aeruginosa biofilms, the “P. aeruginosa: concentration that reduces the area of the spreading biofilm by greater than or equal to 85%” value worked out at 1 µg/mL. Further, the “E. coli: concentration that reduces the area of the spreading biofilm by greater than or equal to 85%” value with E. coli biofilms is 2 µg/mL.
